Where two headings read alike, the source gives them in different places.
Experiments:
[1] = molecular target: T1, L265M SF-1 mutant (Homo sapiens, UniProt Q13285, L265M); experiment: Luciferase reporter assay, L265M SF-1 mutant; format: cell-based; settings: 0.1, 1, and 10 µM, relative to DMSO control
T1 construct: expressed in transfected cells; host or cells: HeLa
Experimental: Reporter assays were conducted as described previously ([47], [52], [53]). Briefly, HeLa cells were seeded at ∼7500 to 10,000 cells per well in 96-well plates (white-walled, clear bottom) in MEMα + 10% FBS – charcoal/dextran treated. Once cells reached 80 to 90% confluence, they were transfected with LRH-1 (in pCI vector, 5 ng/well) or SF-1 (in pcDNA vector, 5 ng/well), a reporter plasmid with an NR5A response element derived from the SHP promoter cloned upstream of Firefly Luciferase (in pGL3-Basic vector, 50 ng/well), and a plasmid expressing Renilla Luciferase constitutively from a CMV promoter (1 ng/well). Cells were transfected with FuGENE at a ratio of 3:1 (FuGENE:DNA). Twenty-four hours after transfection, compounds were diluted in Opti-MEM and introduced to cells at the final concentrations indicated in figures (final DMSO concentration was 0.37%). Luciferase signal was measured after ∼24 h using the DualGlo kit (Promega) with a BioTek Neo plate reader. Each experiment was conducted with three biological replicates, each with three technical replicates averaged prior to data analysis. Firefly Luciferase signal for each well was divided by the well’s Renilla Luciferase signal intensity and then normalized relative to the DMSO control. Data were analyzed with GraphPad Prism (version 9) using a stimulating dose–response curve (Hill slope = 1). […]

[2] = molecular target: T2, LRH-1 (Homo sapiens, UniProt O00482); experiment: Luciferase reporter assay, LRH-1, HeLa cells; format: cell-based; settings: for specificity for LRH-1 over SF-1 in reporter assays: 0.1, 1, and 10 μM, LRH-1 vs SF-1 reporter; for LRH-1 activation in luciferase reporter assay: small molecule at 0.1, 1, and 10 μM, relative to DMSO control
T2 construct: expressed in transfected cells; host or cells: HeLa
T2 sequence (O00482 whole entry): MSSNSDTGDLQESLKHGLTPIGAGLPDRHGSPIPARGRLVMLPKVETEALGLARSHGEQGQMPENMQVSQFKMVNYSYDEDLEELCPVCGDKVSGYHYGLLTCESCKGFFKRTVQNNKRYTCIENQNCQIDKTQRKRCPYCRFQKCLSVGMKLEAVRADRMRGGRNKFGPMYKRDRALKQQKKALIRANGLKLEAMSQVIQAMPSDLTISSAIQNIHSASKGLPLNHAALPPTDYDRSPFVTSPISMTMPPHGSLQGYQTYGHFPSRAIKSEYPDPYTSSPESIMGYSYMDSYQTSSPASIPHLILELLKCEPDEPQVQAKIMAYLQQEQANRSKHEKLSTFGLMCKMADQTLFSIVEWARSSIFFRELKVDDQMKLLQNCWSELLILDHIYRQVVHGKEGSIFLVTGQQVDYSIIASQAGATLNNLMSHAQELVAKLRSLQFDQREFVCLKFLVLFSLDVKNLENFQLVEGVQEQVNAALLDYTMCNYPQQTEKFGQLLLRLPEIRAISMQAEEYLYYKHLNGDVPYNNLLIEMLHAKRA
Experimental: (§1) Reporter assays were conducted as described previously ([47], [52], [53]). Briefly, HeLa cells were seeded at ∼7500 to 10,000 cells per well in 96-well plates (white-walled, clear bottom) in MEMα + 10% FBS – charcoal/dextran treated. Once cells reached 80 to 90% confluence, they were transfected with LRH-1 (in pCI vector, 5 ng/well) or SF-1 (in pcDNA vector, 5 ng/well), a reporter plasmid with an NR5A response element derived from the SHP promoter cloned upstream of Firefly Luciferase (in pGL3-Basic vector, 50 ng/well), and a plasmid expressing Renilla Luciferase constitutively from a CMV promoter (1 ng/well). Cells were transfected with FuGENE at a ratio of 3:1 (FuGENE:DNA). Twenty-four hours after transfection, compounds were diluted in Opti-MEM and introduced to cells at the final concentrations indicated in figures (final DMSO concentration was 0.37%). Luciferase signal was measured after ∼24 h using the DualGlo kit (Promega) with a BioTek Neo plate reader. Each experiment was conducted with three biological replicates, each with three technical replicates averaged prior to data analysis. Firefly Luciferase signal for each well was divided by the well’s Renilla Luciferase signal intensity and then normalized relative to the DMSO control. Data were analyzed with GraphPad Prism (version 9) using a stimulating dose–response curve (Hill slope = 1).

[3] = molecular target: T3, SF-1 LBD (Homo sapiens, UniProt Q13285); experiment: FP assay (6N-FAM forward binding and competition), wild-type SF-1; settings: for Ki: FP competition with 10 nM 6N-FAM, 25 nM SF-1 LBD, 95% confidence intervals in brackets, read-out: Ki (inhibition constant)
T3 construct: transformed with the SF-1 LBD (amino acids 218–461) in the pLIC-His vector; made in house; host or cells: E. coli BL21(DE3)-pLysS
T3 sequence (Q13285 218-461): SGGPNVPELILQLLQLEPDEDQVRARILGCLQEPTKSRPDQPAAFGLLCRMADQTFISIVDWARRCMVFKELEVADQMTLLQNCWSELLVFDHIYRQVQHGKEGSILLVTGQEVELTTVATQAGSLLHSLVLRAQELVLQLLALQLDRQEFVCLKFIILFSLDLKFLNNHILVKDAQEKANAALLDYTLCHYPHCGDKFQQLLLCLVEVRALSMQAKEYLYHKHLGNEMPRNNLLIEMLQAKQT
Experimental: (§2) FP assays were performed as described previously ([38], [47], [53]). Briefly, experiments were conducted in black, polystyrene, non-binding surface 384-well plates (Corning Inc., Corning, NY) with 30 μl volumes in assay buffer (150 mM NaCl, 20 mM Tris-HCl, 5% glycerol, pH 7.4). […] Polarization was monitored on a Neo plate reader (Biotek, Winooski, VT) at an excitation/emission wavelength of 485/528 nm. Plates were incubated overnight at 4 °C and centrifuged at 2000g for 2 min before polarization measurement. Nine technical replicates were conducted over three experiments and compiled binding data were baseline-corrected to wells with no protein and fit with a one-site binding curve in GraphPad Prism version 7 (GraphPad, Inc, La Jolla, CA). 6N conjugated to fluorescein amidite (FAM) (10 nM/well – 0.8 times the affinity of SF-1 for 6N-FAM) was incubated with SF-1 LBD (25 nM/well – 60% of the forward binding Bmax). Unlabeled compounds were added at concentrations indicated in figures with DMSO in each well held constant at 6.7% v/v. Each experiment was performed two or three times with four technical replicates each. Technical replicates were averaged and normalized independently prior to final data analysis.

[4] = molecular target: T4, SF-1 LBD Y436F (Homo sapiens, UniProt Q13285, Y436F); experiment: FP assay (forward binding and competition), SF-1 Y436F; settings: for effect of pocket mouth mutation Y436 on binding affinity: compared to WT, FP competition
T4 construct: transformed with the SF-1 LBD (amino acids 218–461) in the pLIC-His vector; His (pLIC-His vector); made in house
T4 sequence (Q13285 218-461 Y436F): as the sequence (Q13285 218-461) above, with Y219F counted along it
Experimental: as §2
(§3) All mutations other than L265M were introduced using the QuikChange II Site-Directed Mutagenesis Kit (Agilent). The Q5 Site-Directed Mutagenesis Kit (New England Biolabs) was used to generate the L265M mutant. All constructs were sequenced prior to use.

[5] = molecular target: T5, SF-1 (Homo sapiens, UniProt Q13285); experiment: Luciferase reporter assay, SF-1, HeLa cells; format: cell-based; settings: for EC50: HeLa cells, ~24 h; for luciferase signal at highest concentration: cells treated with 3e-5 M, potentially indicating cell toxicity or compound insolubility, data excluded; for maximum activation: normalized relative to DMSO control; for SF-1 activation in luciferase reporter assay: small molecule at 0.1, 1, and 10 μM, relative to DMSO control
T5 construct: expressed in transfected cells; host or cells: HeLa
T5 sequence (Q13285 whole entry): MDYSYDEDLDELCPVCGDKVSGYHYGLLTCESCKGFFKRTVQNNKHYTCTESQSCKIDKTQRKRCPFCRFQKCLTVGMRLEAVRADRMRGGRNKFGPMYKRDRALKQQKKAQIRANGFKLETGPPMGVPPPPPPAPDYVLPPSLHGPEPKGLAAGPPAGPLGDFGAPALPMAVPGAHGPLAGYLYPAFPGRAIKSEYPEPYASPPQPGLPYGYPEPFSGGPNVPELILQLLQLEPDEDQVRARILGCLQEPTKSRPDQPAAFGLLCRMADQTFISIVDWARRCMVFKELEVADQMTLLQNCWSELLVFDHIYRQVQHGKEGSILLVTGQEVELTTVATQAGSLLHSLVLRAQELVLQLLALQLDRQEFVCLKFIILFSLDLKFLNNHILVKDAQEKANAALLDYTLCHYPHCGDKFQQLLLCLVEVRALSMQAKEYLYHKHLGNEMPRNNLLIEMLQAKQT
Experimental: as §1

[6] = molecular target: T3, SF-1 LBD; experiment: Differential scanning fluorimetry (thermal shift assay); format: binding; settings: for Tm (melting temperature): SF-1 LBD pre-exchanged with DLPC, incubated with small molecule overnight; for positive shift in melting temperature: relative to the DLPC phospholipid control
Experimental: Purified SF-1 LBD, pre-exchanged with DLPC (0.2 mg/ml), was combined with small molecules overnight at 4 °C in assay buffer. SYPRO orange dye was added to the complexes the next day, at a final dilution of 1:1000. Complexes were heated at a rate of 0.5 °C/minute on a StepOne Plus thermocycler, using the ROX filter for fluorescence detection. The melting temperature (Tm, 50% unfolding) was calculated using the Bolzman equation GraphPad Prism (version 9). Assays were conducted with nine technical replicates over three experiments.

[7] = molecular target: T6, SF-1 LBD M268L (Homo sapiens, UniProt Q13285, M268L); experiment: FP assay (forward binding and competition), SF-1 M268L; settings: for effect of deep pocket mutation on binding affinity: M268 mutant compared to WT, FP competition
T6 construct: transformed with the SF-1 LBD (amino acids 218–461) in the pLIC-His vector; His (pLIC-His vector); made in house
T6 sequence (Q13285 218-461 M268L): as the sequence (Q13285 218-461) above, with M51L counted along it
Experimental: as §2, §3

[8] = molecular target: T7, SF-1 LBD T272V (Homo sapiens, UniProt Q13285, T272V); experiment: FP assay (forward binding and competition), SF-1 T272V; settings: for effect of deep pocket mutation on binding affinity: T272 mutant compared to WT, FP competition
T7 construct: transformed with the SF-1 LBD (amino acids 218–461) in the pLIC-His vector; His (pLIC-His vector); made in house
T7 sequence (Q13285 218-461 T272V): as the sequence (Q13285 218-461) above, with T55V counted along it
Experimental: as §2, §3

[9] = molecular target: T8, SF-1 LBD K440A (Homo sapiens, UniProt Q13285, K440A); experiment: FP assay (forward binding and competition), SF-1 K440A
T8 construct: transformed with the SF-1 LBD (amino acids 218–461) in the pLIC-His vector; His (pLIC-His vector); made in house
T8 sequence (Q13285 218-461 K440A): as the sequence (Q13285 218-461) above, with K223A counted along it
Experimental: as §2
All mutations other than L265M were introduced using the QuikChange II Site-Directed Mutagenesis Kit (Agilent). […]

[10] = molecular target: T9, CysLite SF-1 (steroidogenic factor-1 ligand binding domain, amino acids 218-461, C247S, C412S) (human, UniProt Q13285 218-461, C247S | C412S); experiment: crystal structure; cleaved SF-1 CysLite (~5 mg/ml) incubated with 4-fold molar excess of TIF2 peptide at room temperature for 2 h; hanging drop vapor diffusion at 4 °C, Na acetate pH 4.6, glycerol, PEG 4000; crystals soaked 2 days with 6N-10CA; 2.59 Å; settings: both partners purified
T9 construct: Steroidogenic factor-1 (SF-1); Expressed from the pLic-His vector; His tag cleaved with tobacco etch virus protease; In the crystal the pocket holds 6N-10CA (soaked in) and a bacterial phospholipid modelled as DPPE; also called SF-1 LBD; SF-1 CysLite; source: E. coli BL21(DE3)-pLysS, purified (HisTrap, TEV cleavage, second HisTrap, SEC)
T9 sequence (Q13285 218-461 C247S/C412S): as the sequence (Q13285 218-461) above, with C30S, C195S counted along it

[11] = 95% confidence intervals in brackets, read-out: EC50 (half maximal effective concentration)

T1 sequence (Q13285 whole entry L265M): as the sequence (Q13285 whole entry) above, with L265M counted along it

C=C(c1ccccc1)[C@@]12CC[C@H](NC(C)=O)C1CC(CCCCCCCCCC(=O)O)=C2c1ccccc1 (mixture of isomers) [2N-10CA]
activation of L265M SF-1 mutant [1]: failed to activate
specificity for LRH-1 over SF-1 in reporter assays [2]: specificity for LRH-1 was largely preserved
LRH-1 activation in luciferase reporter assay [2]: improved agonism

C=C(c1ccccc1)[C@@]12CC[C@H](NC(N)=O)C1CC(CCCCCCCCCC(=O)O)=C2c1ccccc1 (mixture of isomers) [4N-10CA]
specificity for LRH-1 over SF-1 in reporter assays [2]: specificity for LRH-1 was largely preserved
LRH-1 activation in luciferase reporter assay [2]: improved agonism

C=C(c1ccccc1)[C@@]12CC[C@H](NS(N)(=O)=O)[C@@H]1CC(CCCCCCCCCC(=O)O)=C2c1ccccc1 (racemic) [6N-10CA]
Ki [3]: 60 nM
affinity for SF-1 compared with LRH-1 ([3]; SF-1 Ki (Fig. 3C) vs LRH-1 value of ref 47): over two orders of magnitude lower
improvement in affinity of 6N-10CA over 10CA ([3]; SF-1 binding, FP competition): ~4 fold
increase in affinity of 6N-10CA over 6N ([3]; SF-1 binding, FP competition): ~20 fold
effect of pocket mouth mutation Y436 on binding affinity [4]: minimal impact
EC50 ([5]; read-out: EC50): 100 nM
potency of 6N-10CA relative to 10CA (more potent) ([5]; SF-1 luciferase reporter): 16 fold
potency for SF-1 compared with LRH-1 ([5]; SF-1 vs LRH-1 value of ref 47): nearly two times less
luciferase signal at highest concentration [5]: drastic decrease in overall signal
maximum activation [5]: ~1.7
Tm (melting temperature) [6]: 58.3 °C
positive shift in melting temperature [6]: ~6.5 °C
effect of deep pocket mutation on binding affinity [7]: decreased SF-1 binding affinity
effect of deep pocket mutation on binding affinity [8]: decreased SF-1 binding affinity
effect of K440A mutation on binding affinity ([9]; compared to WT, FP competition): increased affinity for 6N-10CA was statistically insignificant

C=C(c1ccccc1)[C@@]12CC[C@H](NS(N)(=O)=O)[C@@H]1CC(CCCCCCCCCC(=O)Nc1ccc3c(c1)C(=O)OC31c3ccc(O)cc3Oc3cc(O)ccc31)=C2c1ccccc1 (racemic) [6N-FAM, reference compound]
Kd ([3]; WT SF-1 LBD, 10 nM 6N-FAM, read-out: probe affinity determined with forward binding assays): 12 nM
Kd ([4]; Y436F, 10 nM 6N-FAM, read-out: probe affinity determined with forward binding assays): 9.9 nM
Kd ([7]; M268L, 10 nM 6N-FAM, read-out: probe affinity determined with forward binding assays): 19.3 nM
Kd ([8]; T272V, 10 nM 6N-FAM, read-out: probe affinity determined with forward binding assays): 10.9 nM
Kd ([9]; K440A, 10 nM 6N-FAM, read-out: probe affinity determined with forward binding assays): 5.5 nM

C=C(c1ccccc1)[C@@]12CC[C@H](NS(N)(=O)=O)[C@@H]1CC(CCCCCC)=C2c1ccccc1 (racemic) [6N]
Ki [3]: 1400 nM
effect of pocket mouth mutation Y436 on binding affinity [4]: minimal impact
EC50 [5, 11]: 130 nM
luciferase signal at highest concentration [5]: drastic decrease in overall signal
maximum activation [5]: ~1.4
Tm (melting temperature) [6]: 58.6 °C
positive shift in melting temperature [6]: ~6.5 °C

C=C(c1ccccc1)[C@@]12CC[C@@H](O)[C@@H]1CC(CCCCCCCCCC(=O)O)=C2c1ccccc1 (racemic) [10CA]
Ki [3]: 250 nM
effect of pocket mouth mutation Y436 on binding affinity [4]: decreased 10CA binding affinity
EC50 [5, 11]: 1600 nM
Tm (melting temperature) [6]: 54.5 °C
positive shift in melting temperature [6]: ~2 °C
effect of deep pocket mutation on binding affinity [7]: decreased SF-1 binding affinity
effect of deep pocket mutation on binding affinity [8]: decreased SF-1 binding affinity

C=C(c1ccccc1)C12CCC(NC(C)=O)C1CC(CCCCCC)=C2c1ccccc1 (stereo not shown) [2N]
SF-1 activation in luciferase reporter assay [5]: without activating SF-1
LRH-1 activation in luciferase reporter assay [2]: activated LRH-1

C=C(c1ccccc1)C12CCC(OC(N)=O)C1CC(CCCCCC)=C2c1ccccc1 (stereo not shown) [3N]
SF-1 activation in luciferase reporter assay [5]: reduced SF-1 activity

C=C(c1ccccc1)C12CCC(NC(N)=O)C1CC(CCCCCC)=C2c1ccccc1 (stereo not shown) [4N]
SF-1 activation in luciferase reporter assay [5]: without activating SF-1
LRH-1 activation in luciferase reporter assay [2]: activated LRH-1

CCCCCCCCCCCC(=O)OC[C@H](COP(=O)([O-])OCC[N+](C)(C)C)OC(=O)CCCCCCCCCCC [DLPC, 1,2-dilauroyl-sn-glycero-3-phosphocholine, reference compound]
Tm (melting temperature) [6]: 52.2 °C

KENALLRYLLDKDD [TIF2 peptide (fragment of the coactivator transcriptional intermediate factor 2)]
binding result [10]: binds

Source: article PMC10407255, “Comparison of activity, structure, and dynamics of SF-1 and LRH-1 complexed with small molecule modulators” (The Journal of Biological Chemistry, 2023)
